Measurements from patent US4393178A, “Fast crystallizing polyester compositions” (priority 1979, dated 1983).
Counter-ions that a name gives are not always drawn. Each block holds one compound with its values, some of them ahead of it.

Assays:
Assay type in all cases: physicochemical
[1] = Crystallisation peak temperature on heating (Tn), DSC; conditions: for Tn (16° C./min): 1% salt deposited from solution on PET; for Tn (16° C./min) / Tn(comp.)-Tn(PET) (16° C./min): pressed 280 °C 1 minute, heating rate 16 °C/minute; for Tn(comp.)-Tn(PET) (16° C./min): 1% salt deposited from solution on PET chip; for Tn: 1% salt on PET I.V. 0.73 from solution; for Tn(composition)-Tn(polyester): PET I.V. 0.73 + 1% salt, 2-roll mill 300 °C 2 min, 10 °C/minute
Experimental: In one such DSC technique the crystallisation peak temperature difference, Tn(composition)--Tn(polyester) is determined by measuring the crystallisation peak temperatures on heating for the composition in comparison with the polyester of the composition not containing the ionisable salt. The detailed procedure is as follows. Compositions were prepared from the polyester and the additive by mixing on a 2-roll mill at 300° C. for 2 minutes. The sample was taken from the mill and pressed into a film in a compression moulding machine. 10 mg samples of the composition were placed in a capsule, rapidly heated to 290° C. and maintained at that temperature for 1 minute. The capsule was then dropped into water to quench the polymer and prevent crystallisation. The sample was then placed in a Perkin Elmer DSC 2 machine and heated at a rate of 10° C./minute until reaching a temperature of 290° C. The crystallisation peak temperature observed on this heating cycle is recorded and compared with the value for the polyester not containing the additive.
Samples of polyethylene terephthalate (I.V. =0.73) containing 1% of the salts listed in Table 2 were prepared by compounding at 300° C. on a 2-roll mill for 2 minutes. The samples were evaluated to determine Tn(composition-Tn(polyester), the total number of end groups, the number of carboxylate groups and the number of hydroxyl and carboxyl groups.
The salts listed in Table 3 were deposited from solution on the surface of polyethylene terephthalate chip to give a concentration of 1% by weight of salt. The product was dried under vcuum at 96° C. for 3 hours. The compositions were pressed into film using a temperature of 280° C. for 1 minute. The DSC measurements were made after quenching from the melt to prevent crystallisation and using a heating rate of 16° C./minute.
1% by weight of the sodium salt of saccharin was deposited on the surface of granules of a polyethylene terephthalate homopolymer of I.V. =0.73 by evaporating an aqueous solution of the salt from the granules by drying at 96° C. under vacuum for 3 hours. The granules obtained were compression moulded into film by pressing at 280° C. for 60 second. The film was used for measurements of Tn at a heating rate of 16° C./minute.
The effect of the salts listed in Table 4 was determined by taking granules of a polymer of poly(ethylene terephthalate) homopolymer having an intrinsic viscosity of 0.73 and evaporating a solution of the salt in methanol or water from the surface of the granules by drying at 96° C. under vacuum for 3 hours. The proportions of polymer and solution used were such as to give a concentration of 1% of salt by weight of the final dry composition. The granules obtained were compression-moulded into film at 280° C. for various periods of time. The film was used for measurement of Tn as hereinbefore described.
Two samples of polyethylene terephthalate chip (I.V. =0.73) were coated from solution with 1% of the sodium salt of o-hydroxybenzoic acid and the disodium salt of the same acid respectively. After drying for 3 hours in a vacuum oven at 95° C. films were prepared by pressing the products for 1 minute at 280° C.

End group determination = assay: End group determination
Experimental: The numbers of hydroxyl and carboxyl groups were also determined according to the procedure given in this paper.
[…] The samples were evaluated to determine Tn(composition-Tn(polyester), the total number of end groups, the number of carboxylate groups and the number of hydroxyl and carboxyl groups.

[2] = Half-crystallisation time (t1/2), isothermal DSC
Experimental: A DSC 2 Perkin Elmer scanning calorimeter was used.
10 mg of the sample of polymer material are placed in a capsule and introduced into the apparatus, wherein the sample is quickly heated to a temperature of 290° C. at which it is maintained during 1 minute.
The molten polymer material is then very quickly cooled by means of liquid air (at a rate of 320° C. per minute) until the crystallisation temperature is reached.
The crystallisation isotherm is registered on a temperature-time graph and the peak appearing on the registered isotherm is taken as the half-crystallisation time (t1/2).

[3] = Degradation constant K (melt degradation performance); conditions: 1% salt in PET, 2-roll mill 270 °C 5 min; molten state 290 °C
Experimental: The melt degradation performance is a measure of the extent of degradation under molten conditions. A convenient method of quantifying the performance is by measuring the "K value". A method for determining this value in the molten state using an Instron Capillary rheometer is given in a paper by J. Devaux et al in Makromol.
This method is carried out on samples prepared by reacting the salt with the polyester on a 2 roll-mill at a temperature above the melting point of the polyester for 5 minutes and then pressing the product obtained into a 2 mm thick sheet using the same temperature for 3 minutes before cooling to room temperature. The method is described for polyethylene terephthalate but can be readily adapted for other polyesters.
For polyethylene terephthalate the K value in the presence of salt should be less than 60.

[4] = 1% salt deposited from solution on PET chip, pressed 280 °C 1 minute
[5] = PET I.V. 0.73 + 1% salt, 2-roll mill 300 °C 2 min

SMILES: O=[PH](O)C1CCCCC1 [Calcium cyclohexyl phosphinate]
Tn (16° C./min) [1]: 129 °C

Tn(comp.)-Tn(PET) (16° C./min) [1]: 22 °C
Tn (16° C./min) [1]: 121 °C
End Groups --COOH (End group determination; [4]): 26 moles × 10^-6 g^-1
End Groups --OH (End group determination; [4]): 60 moles × 10^-6 g^-1
End Groups Total from solution I.V. (End group determination; [4]): 133 moles × 10^-6 g^-1
SMILES: O=C(O)c1ccccc1-c1ccccc1 [Sodium salt of 2-biphenylcarboxylic acid]

SMILES: O=C([O-])c1cccc2c(O)cccc12.[Na+] [Sodium 5-hydroxy-1-naphthoate]
Tn (16° C./min) [1]: 132 °C

SMILES: O=C([O-])c1ccc2cc(O)ccc2c1.[Na+] [Sodium 6-hydroxy-2-naphthoate]
Tn (16° C./min) [1]: 116 °C

SMILES: COC(=O)c1ccc(C(=O)[O-])cc1.[Na+] [Sodium monomethyl terephthalate, reference compound]
Tn ([1]; time in press 60 sec at 280 °C): 132 °C
nucleating activity ([1]; in words): only slight nucleating activity

Tn ([1]; time in press 30 sec at 280 °C): 142.5 °C
Tn ([1]; time in press 60 sec at 280 °C): 144.5 °C
SMILES: O=C(O)c1ccccc1C(=O)O [Potassium hydrogen orthophthalate, reference compound]

SMILES: O=[PH](O)c1ccccc1 [Sodium phenyl phosphinate]
Tn (16° C./min) [1]: 117 °C
End Groups --COOH (End group determination; [4]): 25 moles × 10^-6 g^-1
End Groups --OH (End group determination; [4]): 66 moles × 10^-6 g^-1

Tn(comp.)-Tn(PET) (16° C./min) [1]: 16 °C
Tn (16° C./min) [1]: 131 °C
End Groups --COOH (End group determination; [4]): 31 moles × 10^-6 g^-1
End Groups --OH (End group determination; [4]): 61 moles × 10^-6 g^-1
End Groups Total from solution I.V. (End group determination; [4]): 107 moles × 10^-6 g^-1
SMILES: O=C(O)c1ccc(-c2ccccc2)cc1 [Sodium salt of 4-biphenylcarboxylic acid]

SMILES: O=C([O-])c1c(Cl)cccc1Cl.[Na+] [sodium 2,6-dichlorobenzoate]
Tn(composition)-Tn(polyester) [1]: 25 °C
% of carboxylate end group (End group determination; [5]): 9.8%
End Groups --COOH (End group determination; [5]): 51 moles × 10^-6 g^-1
End Groups --OH (End group determination; [5]): 56 moles × 10^-6 g^-1
End Groups Carboxylate (End group determination; [5]): 15 moles × 10^-6 g^-1
End Groups Total from solution I.V. (End group determination; [5]): 153 moles × 10^-6 g^-1

SMILES: O=C([O-])Cc1cccc2ccccc12.[Na+] [sodium 1-naphthylacetate]
t1/2 (sec) 110° C. [2]: 55 s
t1/2 (sec) 120° C. [2]: 30 s
K [3]: 30

SMILES: O=C([O-])c1ccc(O)cc1.[Na+] [sodium p-hydroxybenzoate]
Tn(composition)-Tn(polyester) [1]: 20 °C
% of carboxylate end group (End group determination; [5]): 2.7%
End Groups --COOH (End group determination; [5]): 102 moles × 10^-6 g^-1
End Groups --OH (End group determination; [5]): 64 moles × 10^-6 g^-1
End Groups Carboxylate (End group determination; [5]): 4 moles × 10^-6 g^-1
End Groups Total from solution I.V. (End group determination; [5]): 148 moles × 10^-6 g^-1

Tn(comp.)-Tn(PET) (16° C./min) [1]: 25 °C
Tn (16° C./min) [1]: 120 °C
End Groups --COOH (End group determination; [4]): 31 moles × 10^-6 g^-1
End Groups --OH (End group determination; [4]): 60 moles × 10^-6 g^-1
End Groups Total from solution I.V. (End group determination; [4]): 121 moles × 10^-6 g^-1
SMILES: O=C(O)c1ccc2ccccc2c1 [Sodium salt of 2-naphthoic acid]
